pIC50: −log10 of the molar value.
Target: HSD17B13 (Homo sapiens (Human), UniProt Q7Z5P4)
Assay: LC/MS estrone detection assay: conversion of estradiol to estrone by HSD17B13
Assay type: biochemical
Settings: 4 μM estradiol, 6 mM NAD+, 30 nM HSD17B13 enzyme (E. coli expressed His-tagged), 2 hours at 26.5° C.
Experimental: The liquid chromatography/mass spectrometry (LC/MS) estrone detection assay monitors the conversion of estradiol to estrone by HSD17B13. This assay was undertaken in a 96wp format (Eppendorf deep well Plate 96/500) in an 80 μl reaction volume containing: 4 μM of Estradiol (E2; Cayman; Ser. No. 10/006,315), 6 mM NAD+(Sigma; #N0623) and 30 nM HSD17B13 enzyme (in-house; E. coli expressed His-tagged, purified, soluble protein) in a reaction containing […] potassium phosphate buffer pH 7.4, with 0.5% vehicle (DMSO). Reactions were incubated for 2 hours at 26.5° C., and estradiol (E2) conversion to estrone (E1) was quantitated by LC-MS/MS based analyte detection for both E2 and E1 using LCMS grade reagents.
Reactions were terminated by the addition of two volumes of acetonitrile (MeCN; LCMS grade; CAS #75/05/8) containing deuterated (D4)-E1 used as internal standard (Clear Synth; #CS-T-54273; 500 ng/mL final concentration). Samples were applied to pre-prepared Bond Elut-C18 extraction cartridges (3 mL; Agilent; Ser. No. 12/102,028), washed and eluted in MeCN. Eluates were dried under nitrogen and re-suspended in 60% methanol (LCMS grade methanol; CAS #67/56/1) before submission for analysis. Aqueous linearity for E2 and E1 were included for quantification.
Analysis of samples was undertaken on a XBridge BEH C18 column (Waters; #186003033) using 0.1% Diethyl Amine in MeCN (mobile phase A; DEA CAS #109-89-7) and 0.1% Diethyl Amine in milli-Q water (mobile phase B) in a 3 min gradient allowing 25% B. Analytes were detected in negative mode using MRM analysis, with E2 having a RT of 1.85 min and E1 having a RT of 2 min. Activity of the enzyme, in the absence of NAD^+, was used to evaluate specificity of conversion. Enzyme activity in the presence of test samples was expressed as a percentage of the uninhibited enzyme activity, and plotted versus inhibitor concentration. Non-linear regression was performed using a four-parameter logistic model and GraphPad Prism software (GraphPad Software, La Jolla, Calif.). All assessments were undertaken in duplicate evaluations and pooled during extraction process and subsequently injected as duplicates for LC-MS/MS analysis.

Sequence of HSD17B13 (Q7Z5P4 20-300): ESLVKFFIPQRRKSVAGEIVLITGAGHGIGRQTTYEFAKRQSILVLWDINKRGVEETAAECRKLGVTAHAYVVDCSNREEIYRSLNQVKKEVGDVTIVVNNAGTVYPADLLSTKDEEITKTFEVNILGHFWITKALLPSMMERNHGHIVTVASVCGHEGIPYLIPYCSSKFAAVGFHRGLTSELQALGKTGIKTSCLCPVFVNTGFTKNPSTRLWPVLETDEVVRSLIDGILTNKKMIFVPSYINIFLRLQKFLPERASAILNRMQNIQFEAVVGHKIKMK

O=C(Nc1cccc2ncn([C@@H]3C[C@H]3c3ccccc3)c(=O)c12)c1cc(Cl)c(O)c(Cl)c1 (racemic) [Example 102, Rac-3,5-dichloro-4-hydroxy-N-(4-oxo-3-((1R,2S)-2-phenylcyclopropyl)-3,4-dihydroquinazolin-5-yl)benzamide]
pIC50: 5.00 to 6.00

O=C(Nc1cccc2ncn([C@@H]3CC[C@H]3c3ccccc3)c(=O)c12)c1cc(Cl)c(O)c(Cl)n1 (racemic) [Example 175, rac-4,6-dichloro-5-hydroxy-N-(4-oxo-3-((1R,2S)-2-phenylcyclobutyl)-3,4-dihydroquinazolin-5-yl)picolinamide]
pIC50: 6.30 to 7.00

O=C(Nc1cccc2ncn(Cc3ccccc3)c(=O)c12)c1cc(Cl)c(O)c(Cl)c1 [Example 1, N-(3-benzyl-4-oxo-3,4-dihydroquinazolin-5-yl)-3,5-dichloro-4-hydroxybenzamide]
pIC50: 6.30 to 7.00

O=C(Nc1cccc2ncn(Cc3ccccc3OC(F)(F)F)c(=O)c12)c1cc(Cl)c(O)c(Cl)c1 [Example 2, 3,5-dichloro-4-hydroxy-N-(4-oxo-3-(2-(trifluoromethoxy)benzyl)-3,4-dihydroquinazolin-5-yl)benzamide]
pIC50: ≥ 7.00

O=C(Nc1cccc2ncn(CC3CC3)c(=O)c12)c1cc(Cl)c(O)c(Cl)c1 [Example 3, 3,5-dichloro-N-(3-(cyclopropylmethyl)-4-oxo-3,4-dihydroquinazolin-5-yl)-4-hydroxybenzamide]
pIC50: 6.30 to 7.00

O=C(Nc1cccc2ncn(Cc3cc[nH]c(=O)c3)c(=O)c12)c1cc(Cl)c(O)c(Cl)c1 [Example 4, 3,5-dichloro-4-hydroxy-N-(3-((2-hydroxypyridin-4-yl)methyl)-4-oxo-3,4-dihydroquinazolin-5-yl)benzamide]
pIC50: 5.00 to 6.00

COc1ccccc1Cn1cnc2cccc(NC(=O)c3cc(Cl)c(O)c(Cl)c3)c2c1=O [Example 5, 3,5-dichloro-4-hydroxy-N-(3-(2-methoxybenzyl)-4-oxo-3,4-dihydroquinazolin-5-yl)benzamide]
pIC50: 6.30 to 7.00

O=C(Nc1cccc2ncn(Cc3ccc(C(F)(F)F)cc3)c(=O)c12)c1cc(Cl)c(O)c(Cl)c1 [Example 6, 3,5-dichloro-4-hydroxy-N-(4-oxo-3-(4-(trifluoromethyl)benzyl)-3,4-dihydroquinazolin-5-yl)benzamide]
pIC50: ≥ 7.00

O=C(Nc1cccc2ncn(Cc3ccc(F)cc3)c(=O)c12)c1cc(Cl)c(O)c(Cl)c1 [Example 7, 3,5-dichloro-N-(3-(4-fluorobenzyl)-4-oxo-3,4-dihydroquinazolin-5-yl)-4-hydroxybenzamide]
pIC50: 6.30 to 7.00

O=C(Nc1cccc2ncn(Cc3ccc(OC(F)(F)F)cc3)c(=O)c12)c1cc(Cl)c(O)c(Cl)c1 [Example 8, 3,5-dichloro-4-hydroxy-N-(4-oxo-3-(4-(trifluoromethoxy)benzyl)-3,4-dihydroquinazolin-5-yl)benzamide]
pIC50: 6.30 to 7.00

O=C(Nc1cccc2ncn(Cc3ccccc3F)c(=O)c12)c1cc(Cl)c(O)c(Cl)c1 [Example 9, 3,5-dichloro-N-(3-(2-fluorobenzyl)-4-oxo-3,4-dihydroquinazolin-5-yl)-4-hydroxybenzamide]
pIC50: 6.30 to 7.00

O=C(Nc1cccc2ncn(Cc3cccc(OC(F)(F)F)c3)c(=O)c12)c1cc(Cl)c(O)c(Cl)c1 [Example 10, 3,5-dichloro-4-hydroxy-N-(4-oxo-3-(3-(trifluoromethoxy)benzyl)-3,4-dihydroquinazolin-5-yl)benzamide]
pIC50: ≥ 7.00

O=C(Nc1cccc2ncn(Cc3cccc(C(F)(F)F)c3)c(=O)c12)c1cc(Cl)c(O)c(Cl)c1 [Example 11, 3,5-dichloro-4-hydroxy-N-(4-oxo-3-(3-(trifluoromethyl)benzyl)-3,4-dihydroquinazolin-5-yl)benzamide]
pIC50: ≥ 7.00

C[C@@H](c1cccc(F)c1)n1cnc2cccc(NC(=O)c3cc(Cl)c(O)c(Cl)c3)c2c1=O [Example 12, (S)-3,5-dichloro-N-(3-(1-(3-fluorophenyl)ethyl)-4-oxo-3,4-dihydroquinazolin-5-yl)-4-hydroxybenzamide]
pIC50: ≥ 7.00

O=C(Nc1cccc2ncn(Cc3ccncc3F)c(=O)c12)c1cc(Cl)c(O)c(Cl)c1 [Example 13, 3,5-dichloro-N-(3-((3-fluoropyridin-4-yl)methyl)-4-oxo-3,4-dihydroquinazolin-5-yl)-4-hydroxybenzamide]
pIC50: 6.00 to 6.30

O=C(Nc1cccc2ncn(Cc3nncs3)c(=O)c12)c1cc(Cl)c(O)c(Cl)c1 [Example 14, N-(3-((1,3,4-thiadiazol-2-yl)methyl)-4-oxo-3,4-dihydroquinazolin-5-yl)-3,5-dichloro-4-hydroxybenzamide]
pIC50: 5.00 to 6.00

O=C(Nc1cccc2ncn(Cc3cocn3)c(=O)c12)c1cc(Cl)c(O)c(Cl)c1 [Example 15, 3,5-dichloro-4-hydroxy-N-(3-(oxazol-4-ylmethyl)-4-oxo-3,4-dihydroquinazolin-5-yl)benzamide]
pIC50: 6.00 to 6.30

O=C(Nc1cccc2ncn(Cc3cccc(F)c3)c(=O)c12)c1cc(Cl)c(O)c(Cl)c1 [Example 16, 3,5-dichloro-N-(3-(3-fluorobenzyl)-4-oxo-3,4-dihydroquinazolin-5-yl)-4-hydroxybenzamide]
pIC50: 6.30 to 7.00

O=C(Nc1cccc2ncn(Cc3ccncc3)c(=O)c12)c1cc(Cl)c(O)c(Cl)c1 [Example 17, 3,5-dichloro-4-hydroxy-N-(4-oxo-3-(pyridin-4-ylmethyl)-3,4-dihydroquinazolin-5-yl)benzamide]
pIC50: 5.00 to 6.00

O=C(Nc1cccc2ncn(Cc3ccccc3C(F)(F)F)c(=O)c12)c1cc(Cl)c(O)c(Cl)c1 [Example 18, 3,5-dichloro-4-hydroxy-N-(4-oxo-3-(2-(trifluoromethyl)benzyl)-3,4-dihydroquinazolin-5-yl)benzamide]
pIC50: ≥ 7.00

O=C(Nc1cccc2ncn(Cc3ccc(C(F)(F)F)nc3)c(=O)c12)c1cc(Cl)c(O)c(Cl)c1 [Example 19, 3,5-dichloro-4-hydroxy-N-(4-oxo-3-((6-(trifluoromethyl)pyridin-3-yl)methyl)-3,4-dihydroquinazolin-5-yl)benzamide]
pIC50: 6.30 to 7.00

O=C(Nc1cccc2ncn(C3(c4ccccc4)CC3)c(=O)c12)c1cc(Cl)c(O)c(Cl)c1 [Example 20, 3,5-dichloro-4-hydroxy-N-(4-oxo-3-(1-phenylcyclopropyl)-3,4-dihydroquinazolin-5-yl) benzamide]
pIC50: 5.00 to 6.00

O=C(Nc1cccc2ncn(C3(c4ccccc4F)CC3)c(=O)c12)c1cc(Cl)c(O)c(Cl)c1 [Example 21, 3,5-dichloro-N-(3-(1-(2-fluorophenyl)cyclopropyl)-4-oxo-3,4-dihydroquinazolin-5-yl)-4-hydroxybenzamide]
pIC50: ≥ 7.00

O=C(Nc1cccc2ncn(Cc3cccc(F)c3)c(=O)c12)c1cc(Cl)c(O)c(Cl)n1 [Example 22, 4,6-dichloro-N-{3-[(3-fluorophenyl)methyl]-4-oxo-3,4-dihydroquinazolin-5-yl}-5-hydroxypyridine-2-carboxamide]
pIC50: ≥ 7.00

O=C(Nc1cccc2ncn(Cc3ccccc3OC(F)(F)F)c(=O)c12)c1cc(Cl)c(O)c(Cl)n1 [Example 23, 4,6-dichloro-5-hydroxy-N-(4-oxo-3-{[2-(trifluoromethoxy)phenyl]methyl}-3,4-dihydroquinazolin-5-yl)pyridine-2-carboxamide]
pIC50: 6.30 to 7.00

O=C(Nc1ncsc1C(=O)NCc1ccccc1F)c1cc(Cl)c(O)c(Cl)c1 [Example 24, 4-(3,5-dichloro-4-hydroxybenzamido)-N-(2-fluorobenzyl)thiazole-5-carboxamide]
pIC50: 5.00 to 6.00

— patent US20230278981A1, “DICHLOROPHENOL HSD17B13 INHIBITORS AND USES THEREOF” (INIPHARM, INC., priority 2020, published 2023)
